In patent publication US20250017853A1, “NANOSUSPENSION CONTAINING PROGERININ, AND PREPARATION METHOD THEREFOR” (PRG S&Tech Inc., priority 2021, published 2025):

What was measured:
[1] = Stability of spray-dried solid dispersions under high temperature and high humidity for 2 weeks; type: physicochemical; details: for Appearance / HPLC results Purity / XRPD: open
[2] = Excipient compatibility, binary mixtures 1:10, 40° C./75% RH over 2 weeks; type: physicochemical
Procedure: To assess compatibility with excipients, progerinin was mixed with HPMC E3, TPGS, and potassium sorbate in a ratio of 1:10, and the effectiveness of the drug (API) components was measured under 40° C./75% RH condition over 2 weeks and shown in Table 9 and Table 10.

[3] = BCS classification, permeability and solubility of progerinin; type: physicochemical
Description: In particular, the above-mentioned progerinin is poorly soluble to the extent that its solubility in water is close to zero, and the solubility is very low even in existing ingestible solvents, such that it is necessary to develop a formulation that enables long-term intake and body absorption through the introduction of new technology.

[4] = tested on: progeria-induced animal model; details: background art; cited from earlier work
[5] = BCS criteria; cited from earlier work

CC1(C)Oc2cc3oc(=O)ccc3cc2C[C@@H]1OC/C=C/c1ccccc1 [progerinin, (7S)-(+)-8,8-dimethyl-7-(3-phenylallyloxy)-7,8-dihydro-6H-pyrano [3,2-g]chromen-2-one]
Appearance ([1]; 25° C./60% RH): White
HPLC results Purity ([1]; 25° C./60% RH, after 1 week): 99.85%
XRPD ([1]; 25° C./60% RH, after 1 week): Unchanged
HPLC results Purity ([1]; 25° C./60% RH, after 2 weeks): 99.85%
XRPD ([1]; 25° C./60% RH, after 2 weeks): Unchanged
Appearance ([1]; 40° C./75% RH): White
HPLC results Purity ([1]; 40° C./75% RH, after 1 week): 99.85%
XRPD ([1]; 40° C./75% RH, after 1 week): Unchanged
HPLC results Purity ([1]; 40° C./75% RH, after 2 weeks): 99.85%
XRPD ([1]; 40° C./75% RH, after 2 weeks): Unchanged
Initial purity ([1]; Initial): 99.85%
API(% Area) ([2]; 40° C./75% RH, 1 week): 99.94 % Area
RRT = 1.02 ([2]; 40° C./75% RH, 1 week): 0.06
API(% Area) ([2]; 40° C./75% RH, 2 weeks): 99.95 % Area
RRT = 1.02 ([2]; 40° C./75% RH, 2 weeks): 0.05
API(% Area) ([2]; Initial): 99.94 % Area
RRT = 1.02 ([2]; Initial): 0.06
compatibility with excipients HPMC E3, TPGS and potassium sorbate ([2]; text summary of Tables 9 and 10): no effect on the drug
solubility in water [3]: close to zero
survival period of progeria-induced animal model [4]: prolonging a survival period
solubility in aqueous media [5]: low solubility in aqueous media
